Test results from patent publication US7429582B2, “Dihydro[1,4]oxazino[2,3,4-hi]indazole derivatives as 5-hydroxytryptamine-6 ligands and use thereof in the treatment of attention deficit disorders” (Wyeth, priority 2006, dated 2008).
Structures can show the parent of a compound that is named as a salt.

Target: T1, human cloned 5-HT6 receptors (Homo sapiens, UniProt P50406)
T1 construct: expressed in transfected cells; host or cells: Hela cells
Settings: [3H]-LSD 3.0 nM, 120 minutes at room temperature, Hela cell membranes; read-out: 5-HT6 Binding Ki
Experimental: This operation was repeated.
The reaction was allowed to proceed in the dark for 120 minutes at room temperature, at which time, the bound ligand-receptor complex was filtered off on a 96 well unifilter with a Packard Filtermate® 196 Harvester. The bound complex caught on the filter disk was allowed to air dry and the radioactivity is measured in a Packard TopCount® equipped with six photomultiplier detectors, after the addition of 40.0 μl Microscint®-20 scintillant to each shallow well. The unifilter plate was heat-sealed and counted in a PackardTopCount® with a tritium efficiency of 31.0%.
Binding in the presence of varying concentrations of test compound was expressed as a percentage of specific binding in the absence of test compound. The results were plotted as log % bound versus log concentration of test compound. […] A linear regression line of data points was plotted, from which the IC50 value is determined and the Ki value is determined based upon the following equation: Ki=IC50/(1+L/KD) where L was the concentration of the radioactive ligand used and KD is the dissociation constant of the ligand for the receptor, both expressed in nM.

T1 sequence (P50406 whole entry): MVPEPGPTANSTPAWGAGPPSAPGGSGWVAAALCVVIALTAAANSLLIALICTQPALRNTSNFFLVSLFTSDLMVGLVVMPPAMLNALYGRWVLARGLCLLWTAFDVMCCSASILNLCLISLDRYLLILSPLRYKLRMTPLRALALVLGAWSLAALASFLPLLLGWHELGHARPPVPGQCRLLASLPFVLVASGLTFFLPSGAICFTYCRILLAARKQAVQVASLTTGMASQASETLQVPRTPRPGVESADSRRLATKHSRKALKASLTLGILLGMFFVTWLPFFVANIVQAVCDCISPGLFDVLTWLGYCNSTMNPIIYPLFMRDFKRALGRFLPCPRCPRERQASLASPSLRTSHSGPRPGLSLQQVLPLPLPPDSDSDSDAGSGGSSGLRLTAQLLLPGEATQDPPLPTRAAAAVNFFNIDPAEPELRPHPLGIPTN

Structure (SMILES)	Ki
O=S(=O)(c1cccc2ccccc12)c1nn2c3c(cccc13)OC(CN1CCCC1)C2 (stereo not drawn) [Example 7, 6-(1-Naphthylsulfonyl)-2-(Pyrrolidin-1-1ylmethyl)-2,3-dihydro[1,4]oxazino[2,3,4-hi]indazole Hydrochloride]	3 nM
CN(C)CC1Cn2nc(S(=O)(=O)c3cccc4ccccc34)c3cccc(c32)O1 (stereo not drawn) [Example 6, N,N-dimethyl-1-[6-(1-naphthylsulfonyl)-2,3-dihydro[1,4]oxazino[2,3,4-hi]indazol-2-yl]methanamine Hydrochloride]	1.6 nM
O=S(=O)(c1cccc2ccccc12)c1nn2c3c(cccc13)OC(CN1CCCCC1)C2 (stereo not drawn) [Example 8, 6-(1-Naphthylsulfonyl)-2-(piperidin-1-1ylmethyl)-2,3-dihydro[1,4]oxazino[2,3,4-hi]indazole Hydrochloride]	160 nM
